The text below walks through data of article PMC5329164 (Cancer Science, 2017).

Converted amounts (≈) assume the structure as drawn.

One series concerns UM‐UC‐14 [FGFR3_S249C]. The experiment in a line: In vitro cell growth assay. The format is cell-based. The note with it: Homo sapiens, UMUC14, 120 h, read-out: IC50, anti-proliferative effect.
For series [1], the system named is adriamycin‐resistant UM‐UC‐14 cell line. As to the kind of experiment: In vitro cell growth assay, adriamycin-resistant UM-UC-14.
The conditions of series [2]: cited from earlier work; for T 1/2: clinical information; for hyperphosphatemia: clinical.
For series [3], the system named is urothelial cancer harboring FGFR3 gene alternation. Particulars: 25 evaluable urothelial cancer patients with FGFR3 gene alternation; cited from earlier work.
The subject of the next series is RT‐112 [FGFR3‐TACC3]. As to the kind of experiment: In vitro cell growth assay. The format is cell-based. The note with it: Homo sapiens, RT-112, 120 h, read-out: IC50, proliferation.
The subject of series [4] is tumors harboring FGFR3‐TACC3 fusion genes. Particulars: patients with tumors harboring FGFR3-TACC3 fusion genes; cited from earlier work.
Series [5] has as its system c‐MYC expression in lung cancer cell lines harboring FGFR1 overexpression. Particulars: cited from earlier work.

For the molecule `COc1cccc2c1C(=O)c1c(O)c3c(c(O)c1C2=O)C[C@@](O)(C(=O)CO)C[C@@H]3O[C@H]1C[C@H](N)[C@H](O)[C@H](C)O1` [Adriamycin], the IC50 with UM‐UC‐14 [FGFR3_S249C] was found to be 6.7 ng/mL (≈ 0.0123 µM); in series [1] (Homo sapiens, UMUC14, 120 h, read-out: IC50, anti-proliferative effect), 58 ng/mL (≈ 0.107 µM). Further, in series [1] (adriamycin-resistant UM-UC-14 vs parental UM-UC-14), the “fold weaker anti-proliferative effect in resistant vs parental cell line” value was 8.7 folds.

As for `CCN1CCN(c2ccc(Nc3cc(N(C)C(=O)Nc4c(Cl)c(OC)cc(OC)c4Cl)ncn3)cc2)CC1` [BGJ398, 3‐(2,6‐dichloro‐3,5‐dimethoxy‐phenyl)‐1‐{6‐[4‐(4‐ethyl‐piperazin‐1‐yl)‐phenylamino]‐pyrimidin‐4‐yl}‐1‐methyl‐urea], in series [2], the “T 1/2” value is given as “quite large” and the hyperphosphatemia entry is “commonly observed”. Also, the overall response rate in series [3] is recorded as 36%.

Take `Nc1ccn([C@@H]2O[C@H](CO)[C@@H](O)C2(F)F)c(=O)n1` [Gemcitabine]: the IC50 in the series with RT‐112 [FGFR3‐TACC3] stood at 0.95 ng/mL (≈ 0.00361 µM).

Regarding `COc1cc(OC)cc(N(CCNC(C)C)c2ccc3ncc(-c4cnn(C)c4)nc3c2)c1` [JNJ‐42756493], in series [2], the “T 1/2” value is listed as “quite large” and the hyperphosphatemia result is “commonly observed”. Also, in series [4], the partial responses entry is “three out of four partial responses”.

In the case of `CCN(CC)CCCCNc1ncc2cc(-c3cc(OC)cc(OC)c3)c(NC(=O)NC(C)(C)C)nc2n1` [PD173074, 1‐tert‐butyl‐3‐[6‐(3,5‐dimethoxy‐phenyl)‐2‐(4‐diethylamino‐butylamino)‐pyrido[2,3‐d]pyrimidin‐7‐yl]‐urea], the c-MYC expression result in series [5] was “decreased”.
